{"source": "PubChem BioAssay AID2060492", "about": "(Molecular Pharmacology Branch, DTP, NCI, 2025)", "test_system": "695427-040-R-J1-PDC complex spheroids, viability percent T/C", "experiment": "Anticancer human tumor 695427-040-R-J1-PDC patient-derived colon adenocarcinoma cell line growth inhibition [GQUAD]", "conditions": "for viability, T/C: stronger effect = lower value", "from_the_text": "DNA G-quadruplex Stabilizer Agents in Combinations in Complex Spheroids\nA high-throughput screen of multi-cell type tumor spheroids was designed to identify active combinations of DNA G-quadruplex stabilizer agents and targeted small molecules. Complex spheroids include a stromal component modeled by human endothelial cells (HUVEC) and fibroblasts modeled by human mesenchymal stem cells (MSCs). The concentration ranges selected for each drug and investigational agent were based upon clinically achievable concentrations if the clinical Cmax of the agent was known.\nCompounds. The drugs and investigational agents: pidnarulex (CX-5461; NSC782164), APTO-253 (NSC789042), BRACO-19 (NSC847499), peposertib (NSC802822), ceralasertib (NSC780249), elimusertib (NSC800525), camonsertib (NSC841442), AZD-1390 (NSC803789), olaparib (NSC753686), talazoparib (NSC767125), ART-558 (NSC835418), sotorasib (NSC818433), MRTX-1133 (NSC836407), SN-38 (NSC673596), topotecan (NSC609699), etoposide (NSC141540), doxorubicin (NSC123127), gemcitabine (NSC613327), 5-fluorouracil (NSC19893), paclitaxel (NSC125973), vemurafenib (NSC761431), panobinostat (NSC761190), R-306465 (JNJ-16241199; NSC773264), adavosertib (NSC754352), TP-3654 (NSC805149), carboplatin (NSC241240), KSQ-4279 (NSC840948), and staurosporine (NSC755774) were obtained from the National Cancer Institute (NCI) Developmental Therapeutics Program Chemical Repository (34). The FDA-approved anticancer drug set is available from the NCI Developmental Therapeutics Program. […] The stock solutions were prepared in dimethyl sulfoxide (DMSO, Sigma-Aldrich, St. Louis, MO, cat. D2650) at 800-fold the tested concentration and stored at -70 degrees C prior to their use. All drugs and investigational agents were tested over a range starting from a high concentration at or near the clinical Cmax and decreasing in half-log increments. If the clinical Cmax for an agent had not been determined, the highest concentration tested was 10 microM.\n2.3 Cell Culture. All cells were maintained in an incubator at 37 degrees C and 5% CO2 with 95% humidity. The PDC lines were cultured according to standard operating procedures established by the NCI PDMR. All PDCs were thawed and cultured in Matrigel-coated flasks prepared with a working solution of 1X Ham's F-12 nutrient mix, without supplementation (Invitrogen, cat. 11765054), 100 U/mL penicillin-streptomycin (Invitrogen, cat. 15140122), and 2.5% Matrigel (Corning Inc., cat. 354248) for the first three passages. The 857933-349-R-J2-PDC line was cultured in 6C/Colon 1B media, which includes advanced DMEM/F-12 (Thermo Fisher Scientific, cat. 12634028), 10 mM HEPES (Thermo Fisher Scientific, cat. 15630080), 1X GlutaMAX supplement (Thermo Fisher Scientific, cat. 35050061), 0.1 mg/mL primocin (InvivoGen, cat. ant-pm-2), 10% defined fetal bovine serum, heat inactivated (HyClone Laboratories Inc., cat. SH30070.03HI), 50% L-WRN conditioned media (ATCC, cat. CRL-3276), 1.25 mM N-Acetyl-L-cysteine (Sigma-Aldrich, cat. A9165), 10 mM nicotinamide (Sigma-Aldrich, cat. N0636), 1X B-27 supplement (Thermo Fisher Scientific, cat. 17504044), 1X N-2 supplement (Thermo Fisher Scientific, cat. 17502048), 10 microM Y-27632 dihydrochloride (Tocris Bioscience, cat. 1254), and 50 ng/mL human EGF recombinant protein (Thermo Fisher Scientific, cat. PHG0311). The 485176-168-R4-J1-PDC line was cultured in Panc media, which includes all 6C/Colon 1B media components plus 100 ng/mL human FGF-10 (Thermo Fisher Scientific, cat. 100-26), 500 nM SB-431542 (Selleckchem, cat. S1067), and gastrin (Tocris, cat. 3006).\n[…]", "note": "Values joined by “and” are separate entries in the source; they are usually repeats but may differ in a detail not shown here. Equal values may be shown once.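 Further: spheroids exposed to compounds for seven days before readout.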"}
{"smiles": "Cn1ncnc1[C@H]1c2n[nH]c(=O)c3cc(F)cc(c23)N[C@@H]1c1ccc(F)cc1", "note": "+ CN(C)c1ccc(Nc2c3ccc(NC(=O)CCN4CCCC4)cc3nc3cc(NC(=O)CCN4CCCC4)ccc23)cc1", "values": [{"measurement": "IC50", "setting": "curve of first compound, second compound 0.0316 µM", "value": "> 316", "unit": "nM"}, {"measurement": "IC50", "setting": "curve of first compound, second compound 0.1 µM", "value": "> 316", "unit": "nM"}, {"measurement": "IC50", "setting": "curve of first compound, second compound 0.316 µM", "value": "> 316", "unit": "nM"}, {"measurement": "IC50", "setting": "curve of first compound, second compound 1 µM", "value": "> 316", "unit": "nM"}, {"measurement": "IC50", "setting": "curve of first compound, second compound 3.16 µM", "value": "> 316", "unit": "nM"}, {"measurement": "IC50", "setting": "curve of first compound, second compound 10 µM", "value": "> 316", "unit": "nM"}, {"measurement": "viability, T/C", "setting": "second compound 0.0316 µM, first compound 0.000999 µM", "value": 102, "unit": "%"}, {"measurement": "viability, T/C", "setting": "second compound 0.0316 µM, first compound 0.00316 µM", "value": 92.9, "unit": "%"}, {"measurement": "viability, T/C", "setting": "second compound 0.0316 µM, first compound 0.00999 µM", "value": 101, "unit": "%"}, {"measurement": "viability, T/C", "setting": "second compound 0.0316 µM, first compound 0.0316 µM", "value": 103, "unit": "%"}, {"measurement": "viability, T/C", "setting": "second compound 0.0316 µM, first compound 0.0999 µM", "value": 100, "unit": "%"}, {"measurement": "viability, T/C", "setting": "second compound 0.0316 µM, first compound 0.316 µM", "value": 93, "unit": "%"}, {"measurement": "viability, T/C", "setting": "second compound 0.1 µM, first compound 0.000999 µM", "value": 112, "unit": "%"}, {"measurement": "viability, T/C", "setting": "second compound 0.1 µM, first compound 0.00316 µM", "value": 89.1, "unit": "%"}, {"measurement": "viability, T/C", "setting": "second compound 0.1 µM, first compound 0.00999 µM", "value": 95.7, "unit": "%"}, {"measurement": "viability, T/C", "setting": "second compound 0.1 µM, first compound 0.0316 µM", "value": 92.8, "unit": "%"}, {"measurement": "viability, T/C", "setting": "second compound 0.1 µM, first compound 0.0999 µM", "value": 93.5, "unit": "%"}, {"measurement": "viability, T/C", "setting": "second compound 0.1 µM, first compound 0.316 µM", "value": 97.5, "unit": "%"}, {"measurement": "viability, T/C", "setting": "second compound 0.316 µM, first compound 0.000999 µM", "value": 88.2, "unit": "%"}, {"measurement": "viability, T/C", "setting": "second compound 0.316 µM, first compound 0.00316 µM", "value": 95.8, "unit": "%"}, {"measurement": "viability, T/C", "setting": "second compound 0.316 µM, first compound 0.00999 µM", "value": 99.5, "unit": "%"}, {"measurement": "viability, T/C", "setting": "second compound 0.316 µM, first compound 0.0316 µM", "value": 96.6, "unit": "%"}, {"measurement": "viability, T/C", "setting": "second compound 0.316 µM, first compound 0.0999 µM", "value": 90.9, "unit": "%"}, {"measurement": "viability, T/C", "setting": "second compound 0.316 µM, first compound 0.316 µM", "value": 91.2, "unit": "%"}, {"measurement": "viability, T/C", "setting": "second compound 1 µM, first compound 0.000999 µM", "value": 105, "unit": "%"}, {"measurement": "viability, T/C", "setting": "second compound 1 µM, first compound 0.00316 µM", "value": 97.8, "unit": "%"}, {"measurement": "viability, T/C", "setting": "second compound 1 µM, first compound 0.00999 µM", "value": 91.5, "unit": "%"}, {"measurement": "viability, T/C", "setting": "second compound 1 µM, first compound 0.0316 µM", "value": 104, "unit": "%"}, {"measurement": "viability, T/C", "setting": "second compound 1 µM, first compound 0.0999 µM", "value": 101, "unit": "%"}, {"measurement": "viability, T/C", "setting": "second compound 1 µM, first compound 0.316 µM", "value": 87.3, "unit": "%"}, {"measurement": "viability, T/C", "setting": "second compound 3.16 µM, first compound 0.000999 µM", "value": 99.6, "unit": "%"}, {"measurement": "viability, T/C", "setting": "second compound 3.16 µM, first compound 0.00316 µM", "value": 94.7, "unit": "%"}, {"measurement": "viability, T/C", "setting": "second compound 3.16 µM, first compound 0.00999 µM", "value": 88.8, "unit": "%"}, {"measurement": "viability, T/C", "setting": "second compound 3.16 µM, first compound 0.0316 µM", "value": 94.2, "unit": "%"}, {"measurement": "viability, T/C", "setting": "second compound 3.16 µM, first compound 0.0999 µM", "value": 95, "unit": "%"}, {"measurement": "viability, T/C", "setting": "second compound 3.16 µM, first compound 0.316 µM", "value": 93.4, "unit": "%"}, {"measurement": "viability, T/C", "setting": "second compound 10 µM, first compound 0.000999 µM", "value": 93.3, "unit": "%"}, {"measurement": "viability, T/C", "setting": "second compound 10 µM, first compound 0.00316 µM", "value": 89.8, "unit": "%"}, {"measurement": "viability, T/C", "setting": "second compound 10 µM, first compound 0.00999 µM", "value": 77.3, "unit": "%"}, {"measurement": "viability, T/C", "setting": "second compound 10 µM, first compound 0.0316 µM", "value": 86.2, "unit": "%"}, {"measurement": "viability, T/C", "setting": "second compound 10 µM, first compound 0.0999 µM", "value": 96.4, "unit": "%"}, {"measurement": "viability, T/C", "setting": "second compound 10 µM, first compound 0.316 µM", "value": 90.1, "unit": "%"}]}
{"smiles": "Cc1cccc(N(C)C(=O)C2C(O)CCN2c2nc(C)cc(C(F)(F)F)c2C#N)c1", "note": "(centres undefined)", "values": [{"measurement": "viability, T/C", "setting": "compound 0.0316 µM", "value": "109% and 104% and 116%"}, {"measurement": "viability, T/C", "setting": "compound 0.1 µM", "value": "90.7% and 90.4% and 93.4%"}, {"measurement": "viability, T/C", "setting": "compound 0.316 µM", "value": "88.3% and 106% and 102%"}, {"measurement": "viability, T/C", "setting": "compound 1 µM", "value": "101% and 94.8% and 87.2%"}, {"measurement": "viability, T/C", "setting": "compound 3.16 µM", "value": "85.2% and 105% and 78.1%"}, {"measurement": "viability, T/C", "setting": "compound 10 µM", "value": "87.4% and 90.2% and 74.4%"}, {"measurement": "IC50", "setting": "curve of compound", "value": "> 10000", "unit": "nM"}]}
